Data taken from US20240150346A1, “CLASS OF HETEROAROMATIC COMPOUND, PREPARATION METHOD THEREFOR AND USE THEREOF” (INNOVSTONE THERAPEUTICS LIMITED, priority 2021, published 2024).
Counter-ions that a name gives are not always drawn.

molecular target: T1, human-detived receptor TLR8 (Homo sapiens, UniProt Q9NR97); assay: Assay on agonistic activity for human-detived receptor TLR8 (HEK-Blue hTLR8 cells, HEK-Blue Detection Medium); assay type: cell-based; details: 16 h incubation, absorbance at 620 nm
T1 construct: host or cells: HEK-Blue hTLR8 cells (HEK293-derived reporter line)
T1 sequence (Q9NR97 27-1041): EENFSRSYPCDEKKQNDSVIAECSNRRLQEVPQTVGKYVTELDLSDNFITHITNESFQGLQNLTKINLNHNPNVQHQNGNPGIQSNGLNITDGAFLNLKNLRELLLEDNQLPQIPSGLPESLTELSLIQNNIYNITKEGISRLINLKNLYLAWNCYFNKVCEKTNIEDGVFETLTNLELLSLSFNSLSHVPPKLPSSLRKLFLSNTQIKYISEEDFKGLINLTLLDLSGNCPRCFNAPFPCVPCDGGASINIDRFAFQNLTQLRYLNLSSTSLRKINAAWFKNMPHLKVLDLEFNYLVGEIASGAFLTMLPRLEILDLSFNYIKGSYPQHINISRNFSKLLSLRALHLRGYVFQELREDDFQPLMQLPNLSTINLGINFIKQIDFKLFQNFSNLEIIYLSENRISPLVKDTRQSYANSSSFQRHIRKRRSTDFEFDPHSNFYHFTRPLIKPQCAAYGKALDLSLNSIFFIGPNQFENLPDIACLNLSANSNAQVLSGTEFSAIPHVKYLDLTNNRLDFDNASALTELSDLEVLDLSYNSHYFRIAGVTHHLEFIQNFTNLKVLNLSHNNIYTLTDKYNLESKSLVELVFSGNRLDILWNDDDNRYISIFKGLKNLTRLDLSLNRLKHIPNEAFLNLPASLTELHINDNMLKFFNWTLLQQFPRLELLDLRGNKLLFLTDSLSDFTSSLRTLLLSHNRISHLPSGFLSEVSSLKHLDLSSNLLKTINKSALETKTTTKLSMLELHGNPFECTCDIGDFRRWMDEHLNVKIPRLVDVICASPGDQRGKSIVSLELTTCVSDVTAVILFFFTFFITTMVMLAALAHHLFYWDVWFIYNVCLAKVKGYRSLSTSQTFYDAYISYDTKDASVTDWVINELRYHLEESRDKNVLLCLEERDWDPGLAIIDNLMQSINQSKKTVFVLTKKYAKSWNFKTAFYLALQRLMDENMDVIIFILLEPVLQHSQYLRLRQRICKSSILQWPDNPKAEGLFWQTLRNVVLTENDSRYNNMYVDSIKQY
Procedure: The assay on the agonistic activity for human-detived receptor TLR7 was performed as that in Test Example 1; • the method for assaying the agonistic activity for the human-detived receptor TLR8 was as follows: HEK-Blue™ hTLR8 cells (InvivoGen, hkb-htlr8) were cultured in a DMEM complete medium (Gibco, 11965-092) containing 10% FBS (Invitrogen, 10099-141c), 1% P/S (Invitrogen, 15140-122), 10 μg/mL Blasticidin (InvivoGen, R210-01), 100 μg/mL Zeocin (InvivoGen, ant-zn), and 100 μg/mL Normocin (InvivoGen, Ant-nr-2). The cells were cultured in an incubator at 37° C. with 5% CO2. When HEK-Blue™ hTLR8 cells reached a growth density of 70%-80%, cell passage was needed.
The agonistic activity for the human-detived receptor TLR8 by HEK-Blue™ hTLR8 cells was assayed by HEK-Blue™ Detection Medium (InvivoGen, hb-det3). First, a bag of HEK-Blue™ Detection Medium powder was completely dissolved, and then filtered through a 0.22 μm filter. Antibiotics were then added until the final concentration was 1% P/S and 100 μg/mL Normocin. HEK-Blue™ Detection Medium was pre-heated to 37° C. in advance on the day of the assay on the activity for the TLR8 receptor, and the temperature was always maintained at 37° C.
The compound powder was dissolved in 100% DMSO (Sigma, D8418-1L) to obtain a 10 mM stock solution, and the compound was completely dissolved by shaking with an oscillator for later use.
The cell culture medium was removed from HEK-Blue™ hTLR8 cells with a growth density of 70-80%. Then, the cells were washed 2-3 times with PBS (Gibco, 10010-031). The cells were digested and then pipetted with a DMEM cell culture medium to a single cell suspension, which was then centrifuged at 1000 rpm for 10 min to collect the cell pellet. […] The cells were counted, diluted to a plating density, and transferred to a 384-well cell culture plate (Corning, 3764). […] After incubation in an incubator at 37° C. for 16 h, the absorbance was read at 620 nm using a microplate reader (PerkinElmer, VICTOR Nivo).
The EC50 of the compound was calculated using the GraphPad Prism 8 software (GraphPad Software, USA). The reading of the negative control well (the well without the compound) was subtracted from the absorbance reading at 620 nm of the compound, and was divided by the ratio of the difference between the positive control (1 μM positive compound) and the negative control well, so that the percentage of the ratio of each well to the ratio of the positive control well (the well treated with 10 μM positive compound), i.e., the percentage of activity, was calculated. Finally, the sigmoidal dose-response (variable slope) curve between the percentage of activity and the concentration of the compound was calculated using the software GraphPad Prism to calculate the EC50 of the compound.

EC50, > 10 µM:
COc1cc(CN(C)C)ccc1Cn1c(SC)nc2c(N)nc3ccccc3c21 [Example 240]
CSc1nc2c(N)nc3ccccc3c2n1Cc1ccc(N2CCN(C)CC2)nc1 [Example 199]
CSc1nc2c(N)nc3ccccc3c2n1Cc1ccc(CN2CCCC2)cc1 [Example 40, 2-(methylthio)-1-(4-(pyrrolidin-1-ylmethyl)benzyl)-1H-imidazo[4,5-c]quinoline-4-amine]
COc1nc2c(N)nc3ccccc3c2n1Cc1ccc(CN2CCCC2)cc1 [Comparative Example 1, 2-methoxy-1-((4-((pyrrolidin-1-yl)methyl)phenyl)methyl)-1H-imidazo[4,5-c]quinolin-4-amine trifluoroacetate, reference compound]
